Assay results taken from patent US11884686B2, “Chelate compounds” (priority 2016, dated 2024).

Tests used:
[1] = In vitro proton relaxivity in human serum; format: physicochemical; settings: 60 MHz, 40° C.
Protocol: Both the longitudinal and transverse relaxation times were measured in human serum (BioreclamationIVT, Cat #HMSRM-M) to reflect the efficiency of the Mn(II) based chelates in an environment close to physiological. The relaxivity assessment was carried out at a concentration ranging from 5 to 0 mM Mn(II), at 40° C. using a Minispec Mq benchtop NMR relaxometer (Bruker Instruments, Rheinstetten, Germany) operating at 60 MHz (1.4 T) with an inversion recovery pulse sequence. The longitudinal and transverse relaxivities of the complexes (e.g., r1 and r2 respectively) were calculated by plotting the reciprocal of their relaxation time versus the manganese concentration as determined via ICP-MS (Spectro Arcos FHS12, S/N 10003910 or S/N 12006120) for each Mn(II) based chelates. The dependence of T1 by B0 (i.e., magnetic field) applied was assessed via the acquisition of ^1H Nuclear Magnetic Relaxation Dispersion (NMRD) profiles. A dedicated Stelar SMARTracer Fast Field Cycling relaxometer (0.01-10 MHz) and a Bruker WP80 NMR electromagnet adapted to variable field measurements (20-80 MHz) and controlled by a SMARTracer PC-NMR console was used to record the ^1H NMRD profiles over an extended range of Larmor Frequencies (from 0.01 to 80 MHz). The temperature was monitored by a VTC91 temperature control unit and maintained by a gas flow. The temperature was determined by previous calibration with a Pt resistance temperature probe. High field relaxivities were measured on a Bruker AVANCE NMR spectrometer at 400 MHz. A total of 25 data points per NMRD profile were recorded at each temperature, pH 6.9 and with a manganese concentration in the samples of 6.99, 6.78 and 4.45 mM for the prior art Mn Chelate, Mn Chelate 4 and Mn Chelate 3, respectively. The concentration of Mn(II) in all samples was verified by Bulk Magnetic Susceptibility (BMS) measurements. Relaxivity was computed by subtracting the relaxation rate of the medium (distilled water) from the relaxation rate of the Mn(II) complex solution at each field strength and dividing the difference by the manganese concentration verified by BMS measurements.
The linear fit (R2>0.99 for all compounds examined) of 1/T1 and 1/T2 as a function of Mn concentration generated the r1 or r2 values reported in Table 4 for human serum.

[2] = Water solubility of Mn(II) based chelates; format: physicochemical; settings: thermodynamic from solid, 25° C.
Protocol: The solubility of Mn(II) based chelates was confirmed by dissolving purified Mn(II) based chelates ( 99% purity) in a prescribed volume of solvent (Millipore water 18.2 MegaOhm from a Millipore BioCell Benchtop unit) to provide a solution of given volume. Solutions were visually inspected for homogeneity and filtered through a 0.45 um PTFE filter membrane if necessary. The assessment was carried out at 25° C. Final sample concentrations were confirmed by determination of final Mn(II) concentration via ICP-MS (Spectro Arcos FHS[…] 10003910 or S/N 12006120).

Structure (SMILES) | r1 (longitudinal relaxivity) [1] [mM⁻¹ s⁻¹] | solubility [2] [mM]
CN1CCN2Cc3cccc(n3)CN(CC1)C(CCC(=O)NC[C@H](O)[C@@H](O)[C@H](O)[C@H](O)CO)C(=O)[O][Mn][O]C(=O)C2CCC(=O)NC[C@H](O)[C@@H](O)[C@H](O)[C@H](O)CO (stereo partly shown) [Mn Chelate 5] | 5.2 | > 500
CN1CCN2Cc3cccc(n3)CN(CC1)C(CC(=O)NC[C@H](O)[C@@H](O)[C@H](O)[C@H](O)CO)C(=O)[O][Mn][O]C(=O)C2CC(=O)NC[C@H](O)[C@@H](O)[C@H](O)[C@H](O)CO (stereo partly shown) [Mn Chelate 5a] | 3.7 | > 500
CN1CCN2Cc3cccc(n3)CN(CC1)C(CCC(=O)Nc1cc(C(=O)NCC(O)CO)cc(C(=O)NCC(O)CO)c1)C(=O)[O][Mn][O]C(=O)C2CCC(=O)Nc1cc(C(=O)NCC(O)CO)cc(C(=O)NCC(O)CO)c1 (stereo not shown) [Mn Chelate 7] | 6.0 | > 500
CN1CCN2Cc3cccc(n3)CN(CC1)C(CCC(=O)N(CCO)CCO)C(=O)[O][Mn][O]C(=O)C2CCC(=O)N(CCO)CCO (stereo not shown) [Mn Chelate 9] | 4.3 | > 500
CN1CCN2Cc3cccc(n3)CN(CC1)C(CCC(=O)NCC(O)CO)C(=O)[O][Mn][O]C(=O)C2CCC(=O)NCC(O)CO (stereo not shown) [Mn Chelate 10] | 4.3 | > 500
CN1CCN2Cc3cccc(n3)CN(CC1)C(CC(=O)NCC(O)CO)C(=O)[O][Mn][O]C(=O)C2CC(=O)NCC(O)CO (stereo not shown) [Mn Chelate 10a] | 3.8 | > 500
CN1CCN2Cc3cccc(n3)CN(CC1)C(CCC(=O)NC(CO)(CO)CO)C(=O)[O][Mn][O]C(=O)C2CCC(=O)NC(CO)(CO)CO (stereo not shown) [Mn Chelate 11] | 4.6 | 
